Consider five molecules from ChEMBL document CHEMBL1136578, “Synthesis of non-natural C2-homo-ceramide and its apoptotic activity against HL-60 cells” (2003).

SMILES strings stand for the structures.

The subject of this experiment is HL-60. The experiment in a line: Apoptotic activity against HL-60 (Human leukemia) cell after 6 hr of stimulation measured by MTT assay. Format: functional.
For the molecule `CCCCCCCCCCCCC/C=C/[C@@H](O)[C@H](CCO)NC(C)=O`, the Apoptosis is 48%.

`CCCCCCCCCCCCCCC[C@@H](O)[C@H](CCO)NC(C)=O` displayed an Apoptosis of 21%.

Molecule `CCCCCCCCCCCCCCC[C@@H](O)[C@H](CCCO)NC(C)=O` yielded an Apoptosis of 20%.

Take `CCCCCCCCCCCCC/C=C/[C@@H](O)[C@H](CCCO)NC(C)=O`: the Apoptosis is on record as 52%.

`CCCCCCCCCCCCC/C=C/[C@@H](O)[C@H](CO)NC(C)=O` (stereo in doubt; form 1) returned an Apoptosis of 62%.
